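The compound was tested at five concentrations on cells cultured in 96-well plates, with a 48-hour exposure period. GI50 marks 50% less growth.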 The source made the active and inactive calls. No stated cut-off is given here; in the data, active = GI50 up to about 1.1 µM and inactive = higher.
Experiments:
Test in all cases: NCI anticancer screen, dose series, 48 h
NCI-H460 = tested on: NCI-H460
SW-620 = tested on: SW-620
HT-29 = tested on: HT-29
OVCAR-5 = tested on: OVCAR-5
RXF 631 = tested on: RXF 631
HOP-62 = tested on: HOP-62
CCRF-CEM = tested on: CCRF-CEM
HOP-92 = tested on: HOP-92
SN12C = tested on: SN12C
M14 = tested on: M14
CAKI-1 = tested on: CAKI-1
NCI-H522 = tested on: NCI-H522
RXF 393 = tested on: RXF 393
HOP-18 = tested on: HOP-18
OVCAR-4 = tested on: OVCAR-4
KM-20L2 = tested on: KM-20L2
HL-60 = tested on: HL-60
DMS-114 = tested on: DMS-114
LXFL 529 = tested on: LXFL 529
SR = tested on: SR
ACHN = tested on: ACHN
DLD-1 = tested on: DLD-1
TK-10 = tested on: TK-10
Malme-3M = tested on: Malme-3M
U-251 = tested on: U-251
OVCAR-8 = tested on: OVCAR-8
IGROV-1 = tested on: IGROV-1
SF-295 = tested on: SF-295
DMS-273 = tested on: DMS-273
HCT-15 = tested on: HCT-15
A498 = tested on: A498
786-0 = tested on: 786-0
NCI-H226 = tested on: NCI-H226
EKVX = tested on: EKVX
UACC-257 = tested on: UACC-257
K562 = tested on: K562
UACC-62 = tested on: UACC-62
RPMI-8226 = tested on: RPMI-8226
SK-OV-3 = tested on: SK-OV-3
SF-539 = tested on: SF-539
SF-268 = tested on: SF-268
UO-31 = tested on: UO-31
SK-MEL-2 = tested on: SK-MEL-2
SNB-78 = tested on: SNB-78
A549 = tested on: A549
SK-MEL-5 = tested on: SK-MEL-5
XF498 = tested on: XF498
LOX IMVI = tested on: LOX IMVI
COLO 205 = tested on: COLO 205
M19-MEL = tested on: M19-MEL
SNB-75 = tested on: SNB-75
OVCAR-3 = tested on: OVCAR-3
SK-MEL-28 = tested on: SK-MEL-28
KM12 = tested on: KM12
HCT-116 = tested on: HCT-116
MOLT-4 = tested on: MOLT-4
HCC 2998 = tested on: HCC 2998
NCI-H23 = tested on: NCI-H23
SNB-19 = tested on: SNB-19

COc1ccc(C(=O)Nc2ccn(CCOC(=O)c3ccc(OC)cc3)c(=O)n2)cc1
GI50 (NCI-H460): > 100 µM (inactive) | GI50 (SW-620): > 100 µM (inactive) | GI50 (HT-29): > 100 µM (inactive) | GI50 (OVCAR-5): > 100 µM (inactive) | GI50 (RXF 631): > 100 µM (inactive) | GI50 (HOP-62): 51.1 µM (inactive) | GI50 (CCRF-CEM): > 100 µM (inactive) | GI50 (HOP-92): 63 µM (inactive) | GI50 (SN12C): > 100 µM (inactive) | GI50 (M14): > 100 µM (inactive) | GI50 (CAKI-1): > 100 µM (inactive) | GI50 (NCI-H522): 46.1 µM (inactive) | GI50 (RXF 393): 20.1 µM (inactive) | GI50 (HOP-18): > 100 µM (inactive) | GI50 (OVCAR-4): > 100 µM (inactive) | GI50 (KM-20L2): > 100 µM (inactive) | GI50 (HL-60): > 100 µM (inactive) | GI50 (DMS-114): > 100 µM (inactive) | GI50 (LXFL 529): > 100 µM (inactive) | GI50 (SR): > 100 µM (inactive) | GI50 (ACHN): > 100 µM (inactive) | GI50 (DLD-1): > 100 µM (inactive) | GI50 (TK-10): > 100 µM (inactive) | GI50 (Malme-3M): > 100 µM (inactive) | GI50 (U-251): 86.7 µM (inactive) | GI50 (OVCAR-8): > 100 µM (inactive) | GI50 (IGROV-1): > 100 µM (inactive) | GI50 (SF-295): 58.9 µM (inactive) | GI50 (DMS-273): > 100 µM (inactive) | GI50 (HCT-15): > 100 µM | GI50 (A498): 93.3 µM (inactive) | GI50 (786-0): > 100 µM (inactive) | GI50 (NCI-H226): > 100 µM (inactive) | GI50 (EKVX): > 100 µM (inactive) | GI50 (UACC-257): > 100 µM (inactive) | GI50 (K562): > 100 µM (inactive) | GI50 (UACC-62): > 100 µM (inactive) | GI50 (RPMI-8226): > 100 µM (inactive) | GI50 (SK-OV-3): > 100 µM (inactive) | GI50 (SF-539): > 100 µM (inactive) | GI50 (SF-268): 43.9 µM (inactive) | GI50 (UO-31): 76.2 µM (inactive) | GI50 (SK-MEL-2): 47.3 µM (inactive) | GI50 (SNB-78): 76.2 µM (inactive) | GI50 (A549): > 100 µM (inactive) | GI50 (SK-MEL-5): > 100 µM (inactive) | GI50 (XF498): > 100 µM (inactive) | GI50 (LOX IMVI): > 100 µM (inactive) | GI50 (COLO 205): > 100 µM (inactive) | GI50 (M19-MEL): > 100 µM (inactive) | GI50 (SNB-75): > 100 µM (inactive) | GI50 (OVCAR-3): > 100 µM (inactive) | GI50 (SK-MEL-28): > 100 µM (inactive) | GI50 (KM12): > 100 µM (inactive) | GI50 (HCT-116): > 100 µM (inactive)

COc1ccccc1NC(=O)CC(=O)n1nc(-c2ccccc2)c(/N=N/c2ccccc2[N+](=O)[O-])c1-c1ccccc1
GI50 (NCI-H460): > 100 µM (inactive) | GI50 (SW-620): > 100 µM (inactive) | GI50 (HT-29): 25.2 µM (inactive) | GI50 (OVCAR-5): 64.1 µM (inactive) | GI50 (RXF 631): > 100 µM (inactive) | GI50 (HOP-62): > 100 µM (inactive) | GI50 (CCRF-CEM): > 100 µM (inactive) | GI50 (HOP-92): 81.7 µM (inactive) | GI50 (SN12C): > 100 µM (inactive) | GI50 (MOLT-4): 64.7 µM (inactive) | GI50 (M14): > 100 µM (inactive) | GI50 (HCC 2998): 70 µM (inactive) | GI50 (CAKI-1): > 100 µM (inactive) | GI50 (NCI-H522): > 100 µM (inactive) | GI50 (RXF 393): 44.7 µM (inactive) | GI50 (HOP-18): > 100 µM (inactive) | GI50 (OVCAR-4): > 100 µM (inactive) | GI50 (KM-20L2): > 100 µM (inactive) | GI50 (HL-60): > 100 µM (inactive) | GI50 (DMS-114): 25.6 µM (inactive) | GI50 (LXFL 529): 83.2 µM (inactive) | GI50 (SR): > 100 µM (inactive) | GI50 (ACHN): 32.2 µM (inactive) | GI50 (DLD-1): 42.3 µM (inactive) | GI50 (TK-10): > 100 µM (inactive) | GI50 (Malme-3M): > 100 µM (inactive) | GI50 (U-251): 56.5 µM (inactive) | GI50 (OVCAR-8): > 100 µM (inactive) | GI50 (IGROV-1): > 100 µM (inactive) | GI50 (SF-295): > 100 µM (inactive) | GI50 (NCI-H23): 98.4 µM (inactive) | GI50 (DMS-273): > 100 µM (inactive) | GI50 (786-0): > 100 µM (inactive) | GI50 (NCI-H226): 0.612 µM (active) | GI50 (EKVX): 44.5 µM (inactive) | GI50 (UACC-257): > 100 µM (inactive) | GI50 (K562): 80.7 µM (inactive) | GI50 (UACC-62): > 100 µM (inactive) | GI50 (RPMI-8226): 74.5 µM (inactive) | GI50 (SK-OV-3): > 100 µM (inactive) | GI50 (SF-539): > 100 µM (inactive) | GI50 (SF-268): 95.3 µM (inactive) | GI50 (UO-31): 38.4 µM (inactive) | GI50 (SK-MEL-2): > 100 µM (inactive) | GI50 (SNB-78): > 100 µM (inactive) | GI50 (A549): > 100 µM (inactive) | GI50 (SK-MEL-5): 94.4 µM (inactive) | GI50 (XF498): > 100 µM (inactive) | GI50 (LOX IMVI): > 100 µM (inactive) | GI50 (COLO 205): 95.5 µM (inactive) | GI50 (SNB-19): > 100 µM (inactive) | GI50 (M19-MEL): 51.2 µM (inactive) | GI50 (SNB-75): 17.8 µM (inactive) | GI50 (OVCAR-3): 69 µM (inactive) | GI50 (SK-MEL-28): 30 µM (inactive) | GI50 (KM12): 36.1 µM (inactive) | GI50 (HCT-116): 71.6 µM (inactive)

CC(C)C(NCc1c2ccccc2[n+](C)c2ccccc12)C(=O)O (stereo unspecified)
GI50 (NCI-H460): 5.94 µM (inactive) | GI50 (SW-620): 3.7 µM (inactive) | GI50 (HT-29): 2.89 µM (inactive) | GI50 (OVCAR-5): 18.9 µM (inactive) | GI50 (RXF 631): 4.74 µM (inactive) | GI50 (HOP-62): 13.8 µM (inactive) | GI50 (CCRF-CEM): 0.627 µM (active) | GI50 (HOP-92): 3.57 µM (inactive) | GI50 (SN12C): 5.58 µM (inactive) | GI50 (MOLT-4): 1.14 µM (inactive) | GI50 (M14): 4.49 µM (inactive) | GI50 (HCC 2998): 14.8 µM (inactive) | GI50 (CAKI-1): 3.48 µM (inactive) | GI50 (NCI-H522): 2.15 µM (inactive) | GI50 (RXF 393): 3.48 µM (inactive) | GI50 (HOP-18): 5.78 µM (inactive) | GI50 (OVCAR-4): 7.62 µM (inactive) | GI50 (KM-20L2): 2.78 µM (inactive) | GI50 (HL-60): 1.97 µM (inactive) | GI50 (DMS-114): 2.28 µM (inactive) | GI50 (LXFL 529): 3.53 µM (inactive) | GI50 (SR): 0.748 µM (active) | GI50 (ACHN): 3.53 µM (inactive) | GI50 (DLD-1): 2.39 µM (inactive) | GI50 (TK-10): 7.91 µM (inactive) | GI50 (Malme-3M): 6.62 µM (inactive) | GI50 (U-251): 7.28 µM (inactive) | GI50 (OVCAR-8): 3.78 µM (inactive) | GI50 (IGROV-1): 8.59 µM (inactive) | GI50 (SF-295): 6.76 µM (inactive) | GI50 (NCI-H23): 8.43 µM (inactive) | GI50 (DMS-273): 3.25 µM (inactive) | GI50 (HCT-15): 3.68 µM | GI50 (A498): 7.26 µM (inactive) | GI50 (786-0): 4.66 µM (inactive) | GI50 (NCI-H226): 14.7 µM (inactive) | GI50 (EKVX): 10.6 µM (inactive) | GI50 (UACC-257): 5.51 µM (inactive) | GI50 (K562): 0.782 µM (active) | GI50 (UACC-62): 3.56 µM (inactive) | GI50 (RPMI-8226): 0.603 µM (active) | GI50 (SK-OV-3): 15.5 µM (inactive) | GI50 (SF-539): 5.94 µM (inactive) | GI50 (SF-268): 2.99 µM (inactive) | GI50 (UO-31): 8.07 µM (inactive) | GI50 (SK-MEL-2): 6.04 µM (inactive) | GI50 (SNB-78): 5.73 µM (inactive) | GI50 (A549): 8.22 µM (inactive) | GI50 (SK-MEL-5): 3.31 µM (inactive) | GI50 (XF498): 4.99 µM (inactive) | GI50 (LOX IMVI): 5.42 µM (inactive) | GI50 (COLO 205): 2.34 µM (inactive) | GI50 (SNB-19): 15.5 µM (inactive) | GI50 (M19-MEL): 7.33 µM (inactive) | GI50 (SNB-75): 1.5 µM (inactive) | GI50 (OVCAR-3): 5.81 µM (inactive) | GI50 (SK-MEL-28): 12.9 µM (inactive) | GI50 (KM12): 4.91 µM (inactive) | GI50 (HCT-116): 2.67 µM (inactive)

— ChEMBL document CHEMBL1201862, “PubChem BioAssay data set” (2004)
